Test results published in ChEMBL document CHEMBL3885881, “DrugMatrix”.

Species: Rattus norvegicus
Experiment: DrugMatrix - Regimen: Daily Repeat
Type: toxicity, organism-based, Sprague-Dawley
Design: regimen Daily Repeat, gender Male, age 6-8 weeks
Conditions: in vivo, po, route oral GAVAGE, vehicle 100 % SALINE; for TOTAL BILIRUBIN / URIC ACID / ALANINE AMINOTRANSFERASE / ALBUMIN / ALKALINE PHOSPHATASE / ASPARTATE AMINOTRANSFERASE / BLOOD UREA NITROGEN / CARBON DIOXIDE / CHLORIDE / CHOLESTEROL / CREATINE PHOSPHOKINASE / CREATININE / GLUCOSE / LIPASE / PHOSPHORUS / POTASSIUM / SODIUM / TOTAL PROTEIN: tissue Plasma; for ABSOLUTE BASOPHIL / ABSOLUTE EOSINOPHIL / ABSOLUTE LYMPHOCYTE / ABSOLUTE MONOCYTE / BASOPHIL / EOSINOPHIL / ERYTHROCYTE COUNT / HEMATOCRIT / HEMOGLOBIN / LEUKOCYTE COUNT / LYMPHOCYTE / MEAN CORPUSCULAR HEMOGLOBIN / MEAN CORPUSCULAR HEMOGLOBIN CONCENTRATION / MEAN CORPUSCULAR VOLUME / MONOCYTE / NEUTROPHIL / PLATELET COUNT: tissue Blood
[1] = 0 mg/kg, 120 h, dose level Control, time 5 day
[2] = 0 mg/kg, […], dose level Control, time 14 day
[3] = 2 mg/kg, 72 h, dose level High, time 3 day
[4] = 2 mg/kg, 120 h, dose level High, time 5 day
[5] = 2 mg/kg, […], dose level High, time 14 day

COc1cccc2c1C(=O)c1c(O)c3c(c(O)c1C2=O)C[C@@](O)(C(C)=O)C[C@@H]3O[C@H]1C[C@H](N)[C@H](O)[C@H](C)O1 [DAUNORUBICIN]
TOTAL BILIRUBIN [1]: 0.37 mg/dL | URIC ACID [1]: 0.97 mg/dL | ABSOLUTE BASOPHIL [2]: 93.3 cells/µL | ABSOLUTE EOSINOPHIL [2]: 80 cells/µL | ABSOLUTE LYMPHOCYTE [2]: 6890 cells/µL | ABSOLUTE MONOCYTE [2]: 170 cells/µL | BASOPHIL [2]: 1% | EOSINOPHIL [2]: 0.83% | ERYTHROCYTE COUNT [2]: 7.03 x10E6/uL | HEMATOCRIT [2]: 43.4% | HEMOGLOBIN [2]: 14.83 G/DL | LEUKOCYTE COUNT [2]: 8.94 x10E3/uL | LYMPHOCYTE [2]: 77.93% | MEAN CORPUSCULAR HEMOGLOBIN [2]: 21.1 pg | MEAN CORPUSCULAR HEMOGLOBIN CONCENTRATION [2]: 34.17 G/DL | MEAN CORPUSCULAR VOLUME [2]: 61.77 fL | MONOCYTE [2]: 1.33% | NEUTROPHIL [2]: 18% | PLATELET COUNT [2]: 1097.33 x10E3/uL | ALANINE AMINOTRANSFERASE [2]: 32 u/L | ALBUMIN [2]: 3.83 G/DL | ALKALINE PHOSPHATASE [2]: 334.67 u/L | ASPARTATE AMINOTRANSFERASE [2]: 69.33 u/L | BLOOD UREA NITROGEN [2]: 16 mg/dL | CARBON DIOXIDE [2]: 40 mmol/L | CHLORIDE [2]: 105.67 MEQ/L | CHOLESTEROL [2]: 70.33 mg/dL | CREATINE PHOSPHOKINASE [2]: 144.67 u/L | CREATININE [2]: 0.3 mg/dL | GLUCOSE [2]: 177.67 mg/dL | LIPASE [2]: 16.33 u/L | PHOSPHORUS [2]: 10.83 mg/dL | POTASSIUM [2]: 5.77 MEQ/L | SODIUM [2]: 143.33 MEQ/L | TOTAL BILIRUBIN [2]: 0.33 mg/dL | TOTAL PROTEIN [2]: 6.37 G/DL | URIC ACID [2]: 0.17 mg/dL | ABSOLUTE BASOPHIL [3]: 110 cells/µL | ABSOLUTE EOSINOPHIL [3]: 210 cells/µL | ABSOLUTE LYMPHOCYTE [3]: 7080 cells/µL | ABSOLUTE MONOCYTE [3]: 140 cells/µL | BASOPHIL [3]: 1.17% | EOSINOPHIL [3]: 2.47% | ERYTHROCYTE COUNT [3]: 6.67 x10E6/uL | HEMATOCRIT [3]: 42.37% | HEMOGLOBIN [3]: 13.97 G/DL | LEUKOCYTE COUNT [3]: 8.7 x10E3/uL | LYMPHOCYTE [3]: 80.87% | MEAN CORPUSCULAR HEMOGLOBIN [3]: 20.97 pg | MEAN CORPUSCULAR HEMOGLOBIN CONCENTRATION [3]: 33 G/DL | MEAN CORPUSCULAR VOLUME [3]: 63.57 fL | MONOCYTE [3]: 1.7% | NEUTROPHIL [3]: 13.37% | PLATELET COUNT [3]: 1161.67 x10E3/uL | ALANINE AMINOTRANSFERASE [3]: 34 u/L | ALBUMIN [3]: 3.9 G/DL | ALKALINE PHOSPHATASE [3]: 354 u/L | ASPARTATE AMINOTRANSFERASE [3]: 68 u/L | BLOOD UREA NITROGEN [3]: 16.67 mg/dL | CARBON DIOXIDE [3]: 36 mmol/L | CHLORIDE [3]: 104 MEQ/L | CHOLESTEROL [3]: 67.67 mg/dL | CREATINE PHOSPHOKINASE [3]: 219 u/L | CREATININE [3]: 0.4 mg/dL | GLUCOSE [3]: 175 mg/dL | LIPASE [3]: 11 u/L | PHOSPHORUS [3]: 12.2 mg/dL | POTASSIUM [3]: 6.47 MEQ/L | SODIUM [3]: 142.67 MEQ/L | TOTAL BILIRUBIN [3]: 0.37 mg/dL | TOTAL PROTEIN [3]: 6.43 G/DL | URIC ACID [3]: 1.17 mg/dL | ABSOLUTE BASOPHIL [4]: 75 cells/µL | ABSOLUTE EOSINOPHIL [4]: 40 cells/µL | ABSOLUTE LYMPHOCYTE [4]: 7990 cells/µL | ABSOLUTE MONOCYTE [4]: 140 cells/µL | BASOPHIL [4]: 0.9% | EOSINOPHIL [4]: 0.5% | ERYTHROCYTE COUNT [4]: 6.82 x10E6/uL | HEMATOCRIT [4]: 42.9% | HEMOGLOBIN [4]: 13.75 G/DL | LEUKOCYTE COUNT [4]: 9.39 x10E3/uL | LYMPHOCYTE [4]: 84.25% | MEAN CORPUSCULAR HEMOGLOBIN [4]: 20.2 pg | MEAN CORPUSCULAR HEMOGLOBIN CONCENTRATION [4]: 32.15 G/DL | MEAN CORPUSCULAR VOLUME [4]: 62.9 fL | MONOCYTE [4]: 1.5% | NEUTROPHIL [4]: 12.5% | PLATELET COUNT [4]: 1293.5 x10E3/uL | ALANINE AMINOTRANSFERASE [4]: 27.67 u/L | ALBUMIN [4]: 3.93 G/DL | ALKALINE PHOSPHATASE [4]: 361.67 u/L | ASPARTATE AMINOTRANSFERASE [4]: 66 u/L | BLOOD UREA NITROGEN [4]: 14.67 mg/dL | CARBON DIOXIDE [4]: 35 mmol/L | CHLORIDE [4]: 106.67 MEQ/L | CHOLESTEROL [4]: 68.67 mg/dL | CREATINE PHOSPHOKINASE [4]: 274.67 u/L | CREATININE [4]: 0.4 mg/dL | GLUCOSE [4]: 192.33 mg/dL | LIPASE [4]: 9 u/L | PHOSPHORUS [4]: 11.87 mg/dL | POTASSIUM [4]: 6.67 MEQ/L | SODIUM [4]: 146 MEQ/L | TOTAL BILIRUBIN [4]: 0.37 mg/dL | TOTAL PROTEIN [4]: 6.33 G/DL | URIC ACID [4]: 1.37 mg/dL | ABSOLUTE BASOPHIL [5]: 120 cells/µL | ABSOLUTE EOSINOPHIL [5]: 74 cells/µL | ABSOLUTE LYMPHOCYTE [5]: 8830 cells/µL | ABSOLUTE MONOCYTE [5]: 250 cells/µL | BASOPHIL [5]: 1.1% | EOSINOPHIL [5]: 0.66% | ERYTHROCYTE COUNT [5]: 7.41 x10E6/uL | HEMATOCRIT [5]: 45.06% | HEMOGLOBIN [5]: 15.1 G/DL | LEUKOCYTE COUNT [5]: 11 x10E3/uL | LYMPHOCYTE [5]: 80.4% | MEAN CORPUSCULAR HEMOGLOBIN [5]: 20.36 pg | MEAN CORPUSCULAR HEMOGLOBIN CONCENTRATION [5]: 33.46 G/DL | MEAN CORPUSCULAR VOLUME [5]: 60.78 fL | MONOCYTE [5]: 2% | NEUTROPHIL [5]: 15.02% | PLATELET COUNT [5]: 1090.8 x10E3/uL | ALANINE AMINOTRANSFERASE [5]: 31.8 u/L | ALBUMIN [5]: 3.88 G/DL | ALKALINE PHOSPHATASE [5]: 326.6 u/L | ASPARTATE AMINOTRANSFERASE [5]: 64.8 u/L | BLOOD UREA NITROGEN [5]: 16.6 mg/dL | CARBON DIOXIDE [5]: 42.4 mmol/L | CHLORIDE [5]: 106 MEQ/L | CHOLESTEROL [5]: 66.4 mg/dL | CREATINE PHOSPHOKINASE [5]: 203 u/L | CREATININE [5]: 0.4 mg/dL | GLUCOSE [5]: 167.6 mg/dL | LIPASE [5]: 12.4 u/L | PHOSPHORUS [5]: 9.42 mg/dL | POTASSIUM [5]: 6.3 MEQ/L | SODIUM [5]: 144.4 MEQ/L | TOTAL BILIRUBIN [5]: 0.4 mg/dL | TOTAL PROTEIN [5]: 6.36 G/DL | URIC ACID [5]: 0.04 mg/dL
